From PubChem BioAssay (NCI)
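Here, GI50 denotes the concentration required for 50% inhibition of growth. The concentration for full growth arrest is given as TGI.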

Columns and labels:
Assay in all cases: NCI-60 cell line screen, 384-well format
OVCAR-3 ovarian = test system: OVCAR-3 ovarian
CAKI-1 renal = test system: CAKI-1 renal
SK-MEL-28 melanoma = test system: SK-MEL-28 melanoma
T-47D breast = test system: T-47D breast
NCI-H23 lung = test system: NCI-H23 lung
NCI/ADR-RES ovarian = test system: NCI/ADR-RES ovarian
SR leukemia = test system: SR leukemia
OVCAR-8 ovarian = test system: OVCAR-8 ovarian
A549 NSCLC = test system: A549 NSCLC
DU-145 prostate = test system: DU-145 prostate
NCI-H322M lung = test system: NCI-H322M lung
SNB-19 CNS = test system: SNB-19 CNS
HCC-2998 colon = test system: HCC-2998 colon
KM12 colon = test system: KM12 colon
IGROV1 ovarian = test system: IGROV1 ovarian
HOP-62 NSCLC = test system: HOP-62 NSCLC
SK-MEL-2 melanoma = test system: SK-MEL-2 melanoma
COLO 205 colon = test system: COLO 205 colon
OVCAR-5 ovarian = test system: OVCAR-5 ovarian
RXF 393 renal = test system: RXF 393 renal
SF-268 CNS = test system: SF-268 CNS
BT-549 breast = test system: BT-549 breast
LOX IMVI melanoma = test system: LOX IMVI melanoma
A498 renal = test system: A498 renal
MOLT-4 leukemia = test system: MOLT-4 leukemia
SF-539 CNS = test system: SF-539 CNS
HT29 colon = test system: HT29 colon
RPMI-8226 leukemia = test system: RPMI-8226 leukemia
HCT-116 colon = test system: HCT-116 colon
UACC-257 melanoma = test system: UACC-257 melanoma
M14 melanoma = test system: M14 melanoma
NCI-H522 lung = test system: NCI-H522 lung
UACC-62 melanoma = test system: UACC-62 melanoma
NCI-H226 lung = test system: NCI-H226 lung
MCF7 breast = test system: MCF7 breast
TK-10 renal = test system: TK-10 renal
HCT-15 colon = test system: HCT-15 colon
SK-OV-3 ovarian = test system: SK-OV-3 ovarian
K-562 leukemia = test system: K-562 leukemia
OVCAR-4 ovarian = test system: OVCAR-4 ovarian
SN12C renal = test system: SN12C renal
MALME-3M melanoma = test system: MALME-3M melanoma
MDA-MB-231 breast = test system: MDA-MB-231 breast
NCI-H460 NSCLC = test system: NCI-H460 NSCLC
HL-60(TB) leukemia = test system: HL-60(TB) leukemia
SK-MEL-5 melanoma = test system: SK-MEL-5 melanoma
MDA-MB-435 melanoma = test system: MDA-MB-435 melanoma
SW-620 colon = test system: SW-620 colon
U251 glioblastoma = test system: U251 glioblastoma
SF-295 CNS = test system: SF-295 CNS
ACHN renal = test system: ACHN renal
MDA-MB-468 breast = test system: MDA-MB-468 breast
786-0 renal = test system: 786-0 renal
CCRF-CEM leukemia = test system: CCRF-CEM leukemia
HOP-92 NSCLC = test system: HOP-92 NSCLC
UO-31 renal = test system: UO-31 renal
PC-3 prostate = test system: PC-3 prostate

Compound: COc1cc2c(Oc3ccc(-c4cnc(Nc5ccc(F)cc5)n(C)c4=O)cc3F)ccnc2cc1OCCCN1CCOCC1
- GI50 (OVCAR-3 ovarian): 0.804 µM
- TGI (OVCAR-3 ovarian): 2.04 µM
- GI50 (CAKI-1 renal): 0.368 µM
- TGI (CAKI-1 renal): 1.41 µM
- GI50 (SK-MEL-28 melanoma): 0.258 µM
- TGI (SK-MEL-28 melanoma): 0.923 µM
- GI50 (T-47D breast): 1.07 µM
- TGI (T-47D breast): 2.26 µM
- GI50 (NCI-H23 lung): 0.237 µM
- TGI (NCI-H23 lung): 1.35 µM
- GI50 (NCI/ADR-RES ovarian): 1.18 µM
- TGI (NCI/ADR-RES ovarian): 2.41 µM
- GI50 (SR leukemia): 0.513 µM
- TGI (SR leukemia): 1.68 µM
- GI50 (OVCAR-8 ovarian): 1.31 µM
- TGI (OVCAR-8 ovarian): 2.59 µM
- GI50 (A549 NSCLC): 0.572 µM
- TGI (A549 NSCLC): 1.8 µM
- GI50 (DU-145 prostate): 1.47 µM
- TGI (DU-145 prostate): 2.8 µM
- GI50 (NCI-H322M lung): 0.761 µM
- TGI (NCI-H322M lung): 2.02 µM
- GI50 (SNB-19 CNS): 1.26 µM
- TGI (SNB-19 CNS): 2.52 µM
- GI50 (HCC-2998 colon): 1.17 µM
- TGI (HCC-2998 colon): 2.4 µM
- TGI (KM12 colon): 0.308 µM
- GI50 (IGROV1 ovarian): 0.368 µM
- TGI (IGROV1 ovarian): 1.47 µM
- GI50 (HOP-62 NSCLC): 1.31 µM
- TGI (HOP-62 NSCLC): 2.59 µM
- GI50 (SK-MEL-2 melanoma): 0.495 µM
- TGI (SK-MEL-2 melanoma): 1.51 µM
- GI50 (COLO 205 colon): 0.227 µM
- TGI (COLO 205 colon): 0.761 µM
- GI50 (OVCAR-5 ovarian): 0.811 µM
- TGI (OVCAR-5 ovarian): 2.05 µM
- GI50 (RXF 393 renal): 0.189 µM
- TGI (RXF 393 renal): 0.541 µM
- GI50 (SF-268 CNS): 1.16 µM
- TGI (SF-268 CNS): 2.39 µM
- GI50 (BT-549 breast): 0.684 µM
- TGI (BT-549 breast): 1.87 µM
- GI50 (LOX IMVI melanoma): 0.402 µM
- TGI (LOX IMVI melanoma): 1.45 µM
- GI50 (A498 renal): 1.24 µM
- TGI (A498 renal): 2.5 µM
- GI50 (MOLT-4 leukemia): 0.15 µM
- TGI (MOLT-4 leukemia): 0.369 µM
- GI50 (SF-539 CNS): 0.257 µM
- TGI (SF-539 CNS): 1.15 µM
- GI50 (HT29 colon): 0.275 µM
- TGI (HT29 colon): 1.2 µM
- GI50 (RPMI-8226 leukemia): 0.545 µM
- TGI (RPMI-8226 leukemia): 1.74 µM
- GI50 (HCT-116 colon): 0.704 µM
- TGI (HCT-116 colon): 2 µM
- GI50 (UACC-257 melanoma): 0.252 µM
- TGI (UACC-257 melanoma): 1.09 µM
- GI50 (M14 melanoma): 0.248 µM
- TGI (M14 melanoma): 0.814 µM
- GI50 (NCI-H522 lung): 1.04 µM
- TGI (NCI-H522 lung): 2.21 µM
- GI50 (UACC-62 melanoma): 0.288 µM
- TGI (UACC-62 melanoma): 1.25 µM
- GI50 (NCI-H226 lung): 0.476 µM
- TGI (NCI-H226 lung): 1.57 µM
- GI50 (MCF7 breast): 0.441 µM
- TGI (MCF7 breast): 1.62 µM
- GI50 (TK-10 renal): 1.16 µM
- TGI (TK-10 renal): 2.4 µM
- GI50 (HCT-15 colon): 0.792 µM
- TGI (HCT-15 colon): 2.03 µM
- GI50 (SK-OV-3 ovarian): 0.68 µM
- TGI (SK-OV-3 ovarian): 1.99 µM
- GI50 (K-562 leukemia): 0.0107 µM
- TGI (K-562 leukemia): 0.0234 µM
- GI50 (OVCAR-4 ovarian): 1.11 µM
- TGI (OVCAR-4 ovarian): 2.32 µM
- GI50 (SN12C renal): 0.247 µM
- TGI (SN12C renal): 1.29 µM
- GI50 (MALME-3M melanoma): 0.14 µM
- TGI (MALME-3M melanoma): 0.453 µM
- GI50 (MDA-MB-231 breast): 0.748 µM
- TGI (MDA-MB-231 breast): 2.03 µM
- GI50 (NCI-H460 NSCLC): 0.526 µM
- TGI (NCI-H460 NSCLC): 1.79 µM
- GI50 (HL-60(TB) leukemia): 0.268 µM
- TGI (HL-60(TB) leukemia): 1.13 µM
- GI50 (SK-MEL-5 melanoma): 0.329 µM
- TGI (SK-MEL-5 melanoma): 1.5 µM
- GI50 (MDA-MB-435 melanoma): 0.384 µM
- TGI (MDA-MB-435 melanoma): 1.39 µM
- GI50 (SW-620 colon): 0.509 µM
- TGI (SW-620 colon): 1.88 µM
- GI50 (U251 glioblastoma): 1.14 µM
- TGI (U251 glioblastoma): 2.36 µM
- GI50 (SF-295 CNS): 0.439 µM
- TGI (SF-295 CNS): 1.64 µM
- GI50 (ACHN renal): 0.313 µM
- TGI (ACHN renal): 1.46 µM
- GI50 (MDA-MB-468 breast): 1.54 µM
- TGI (MDA-MB-468 breast): 2.87 µM
- GI50 ([…]-0 renal): 1.24 µM
- TGI (786-0 renal): 2.49 µM
- GI50 (CCRF-CEM leukemia): 1.07 µM
- TGI (CCRF-CEM leukemia): 2.26 µM
- GI50 (HOP-92 NSCLC): 0.0764 µM
- TGI (HOP-92 NSCLC): 0.452 µM
- GI50 (UO-31 renal): 0.409 µM
- TGI (UO-31 renal): 1.43 µM
- GI50 (PC-3 prostate): 1.52 µM
- TGI (PC-3 prostate): 2.86 µM
